From PMC3723409 (Basic & clinical pharmacology & toxicology, 2009)
Read-outs that look alike come from different tables or passages of the source.

What was measured:
[1] = human, in vivo
[2] = in vivo interaction with buprenorphine; cited from earlier work
[3] = with lopinavir/ritonavir; cited from earlier work

SMILES | Effect on pharmacokinetics / metabolism of buprenorphine [2] | also measured
CO[C@]12CC[C@@]3(C[C@@H]1[C@](C)(O)C(C)(C)C)[C@H]1Cc4ccc(O[C@@H]5O[C@H](C(=O)O)[C@@H](O)[C@H](O)[C@H]5O)c5c4[C@@]3(CCN1CC1CC1)[C@H]2O5 [B3G, buprenorphine-3-glucuronide] |  | Change in renal clearance [1]: No significant changes
CC(C)Nc1cccnc1N1CCN(C(=O)c2cc3cc(NS(C)(=O)=O)ccc3[nH]2)CC1 [delavirdine] | inhibition of buprenorphine metabolism | 
O=C1Nc2ccc(Cl)cc2[C@@](C#CC2CC2)(C(F)(F)F)O1 [efavirenz] | induction | 
Cc1c(O)cccc1C(=O)N[C@@H](CSc1ccccc1)[C@H](O)CN1C[C@H]2CCCC[C@H]2C[C@H]1C(=O)NC(C)(C)C [nelfinavir] | neither nelfinavir nor the combination of lopinavir/ritonavir had any significant effect | 
CC(C)c1nc(CN(C)C(=O)N[C@H](C(=O)N[C@@H](Cc2ccccc2)C[C@H](O)[C@H](Cc2ccccc2)NC(=O)OCc2cncs2)C(C)C)cs1 [ritonavir] | increased exposure to buprenorphine | 
C[C@H](Cn1cnc2c(N)ncnc21)OCP(=O)(O)O [tenofovir] |  | Change in renal clearance [3]: decrease
